# Biological target: T1, human EP3 receptor (Homo sapiens, UniProt P43115)
# T1 construct: expressed in transfected cells; host or cells: CHO K1 (Chinese Hamster Ovary), stably co-transfected with Galpha16 and mitochondrial clytin
# T1 sequence (P43115 1-390): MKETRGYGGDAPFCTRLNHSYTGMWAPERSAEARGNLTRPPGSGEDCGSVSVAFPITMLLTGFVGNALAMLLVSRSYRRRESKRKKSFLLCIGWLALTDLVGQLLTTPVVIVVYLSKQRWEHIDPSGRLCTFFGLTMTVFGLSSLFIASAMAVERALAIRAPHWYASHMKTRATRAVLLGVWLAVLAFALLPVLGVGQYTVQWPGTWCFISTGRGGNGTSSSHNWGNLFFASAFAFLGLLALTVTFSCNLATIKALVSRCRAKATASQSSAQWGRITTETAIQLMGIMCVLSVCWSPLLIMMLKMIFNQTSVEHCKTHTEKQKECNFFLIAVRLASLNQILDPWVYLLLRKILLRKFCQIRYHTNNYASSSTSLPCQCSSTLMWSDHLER
# Assay: Cellular in vitro assay for determining EP3 receptor activity (human EP3 cell line, sulprostone-stimulated calcium luminescence)
# Assay type: cell-based
# Details: CHO cells expressing human EP3 and mitochondrial Clytin; antagonist mode, sulprostone at EC50; read-out: EP3 CHO mtCLY ANTAG IC50
# Procedure, shortened: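 Antagonist activity was measured as inhibition of the luminescent calcium signal elicited by EC50 sulprostone, following 10 min compound pretreatment. The cell line was recombinant CHO K1 co-expressing human EP3, Gα16 and the photoprotein Clytin, reconstituted with coelenterazine.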
row,IC50 [nM],Structure (SMILES)
1,4.05,"Cc1cccc2ncc(-c3cn4nc(C(=O)NC(c5ccc(F)cc5)C(C)C)c(C(C)C)c4c(=O)[nH]3)cc12 (stereo not drawn) [Example 4-51, N-[1-(4-Fluorophenyl)-2-methylpropyl]-3-isopropyl-6-(5-methyl-3-quinolyl)-4-oxo-5H-pyrazolo[1,5-a]pyrazine-2-carboxamide]"
2,4.05,"Cc1cccc2ncc(-c3cn4nc(C(=O)NC(C)c5ccc(Cl)c(Cl)c5)c(C(C)C)c4c(=O)[nH]3)cc12 (stereo not drawn) [Example 4-52, N-[1-(3,4-Dichlorophenyl)ethyl]-3-isopropyl-6-(5-methyl-3-quinolyl)-4-oxo-5H-pyrazolo[1,5-a]pyrazine-2-carboxamide]"
3,1.1,"Cc1cccc2ncc(-c3cn4nc(C(=O)NC(C)c5ccc(S(N)(=O)=O)cc5)c(C(C)C)c4c(=O)[nH]3)cc12 (stereo not drawn) [Example 4-53, 3-Isopropyl-6-(5-methyl-3-quinolyl)-4-oxo-N-[1-(4-sulfamoylphenyl)ethyl]-5H-pyrazolo[1,5-a]pyrazine-2-carboxamide]"
4,2,"Cc1cccc2ncc(-c3cn4nc(C(=O)NC(C)c5ccccn5)c(C(C)C)c4c(=O)[nH]3)cc12 (stereo not drawn) [Example 4-54, 3-Isopropyl-6-(5-methyl-3-quinolyl)-4-oxo-N-[1-(2-pyridyl)ethyl]-5H-pyrazolo[1,5-a]pyrazine-2-carboxamide]"
5,2.75,"Cc1ccc([C@@H](C)NC(=O)c2nn3cc(-c4cnc5cccc(C)c5c4)[nH]c(=O)c3c2C(C)C)cc1 [Example 4-55, N-[(1R)-1-(4-Methylphenyl)ethyl]-6-(5-methylquinolin-3-yl)-4-oxo-3-(propan-2-yl)-4,5-dihydropyrazolo[1,5-a]pyrazine-2-carboxamide]"
6,4,"Cc1ccc([C@H](C)NC(=O)c2nn3cc(-c4cnc5cccc(C)c5c4)[nH]c(=O)c3c2C(C)C)cc1 [Example 4-56, N-[(7S)-1-(4-Methylphenyl)ethyl]-6-(5-methylquinolin-3-yl)-4-oxo-3-(propan-2-yl)-4,5-dihydropyrazolo[1,5-a]pyrazine-2-carboxamide]"
7,1.9,"Cc1cccc2ncc(-c3cn4nc(C(=O)NC(C)c5ccc6c(c5)OCCO6)c(C(C)C)c4c(=O)[nH]3)cc12 (stereo not drawn) [Example 4-57, N-[1-(2,3-Dihydro-1,4-benzodioxin-6-yl)ethyl]-3-isopropyl-6-(5-methyl-3-quinolyl)-4-oxo-5H-pyrazolo[1,5-a]pyrazine-2-carboxamide]"
8,4.3,"Cc1cccc2ncc(-c3cn4nc(C(=O)N[C@H]5CCCc6ccccc65)c(C(C)C)c4c(=O)[nH]3)cc12 [Example 4-58, 6-(5-Methylquinolin-3-yl)-4-oxo-3-(propan-2-yl)-N-[(7S)-1,2,3,4-tetrahydronaphthalen-1-yl]-4,5-dihydropyrazolo[1,5-a]pyrazine-2-carboxamide]"
9,0.675,"Cc1cccc2ncc(-c3cn4nc(C(=O)N[C@@H](C)c5ccccc5)c(C(C)C)c4c(=O)[nH]3)cc12 [Example 4-59, 6-(5-Methylquinolin-3-yl)-4-oxo-N-[(7S)-1-phenylethyl]-3-(propan-2-yl)-4,5-dihydropyrazolo[1,5-a]pyrazine-2-carboxamide]"
10,2.1,"Cc1cc(C)nc(CNC(=O)c2nn3cc(-c4cnc5cccc(C)c5c4)[nH]c(=O)c3c2C(C)C)n1 [Example 4-60, N-[(4,6-Dimethylpyrimidin-2-yl)methyl]-6-(5-methylquinolin-3-yl)-4-oxo-3-(propan-2-yl)-4,5-dihydropyrazolo[1,5-a]pyrazine-2-carboxamide]"
11,1.8,"Cc1cccc2ncc(-c3cn4nc(C(=O)NC(C)c5ccc(S(C)(=O)=O)cc5)c(C(C)C)c4c(=O)[nH]3)cc12 (stereo not drawn) [Example 4-61, 3-Isopropyl-6-(5-methyl-3-quinolyl)-N-[1-(4-methylsulfonylphenyl)ethyl]-4-oxo-5H-pyrazolo[1,5-a]pyrazine-2-carboxamide]"
12,2.05,"Cc1cccc2ncc(-c3cn4nc(C(=O)NC(C)c5cccc(Br)c5)c(C(C)C)c4c(=O)[nH]3)cc12 (stereo not drawn) [Example 4-62, N-[1-(3-Bromophenyl)ethyl]-3-isopropyl-6-(5-methyl-3-quinolyl)-4-oxo-5H-pyrazolo[1,5-a]pyrazine-2-carboxamide]"
13,9.45,"Cc1cccc2ncc(-c3cn4nc(C(=O)NC(CN5CCCC5)c5ccccc5)c(C(C)C)c4c(=O)[nH]3)cc12 (stereo not drawn) [Example 4-63, 3-Isopropyl-6-(5-methylquinolin-3-yl)-4-oxo-N-[1-phenyl-2-(pyrrolidin-1-yl)ethyl]-4,5-dihydropyrazolo[1,5-a]pyrazine-2-carboxamide]"
14,2.55,"COc1ccc2c(c1)CCCC2NC(=O)c1nn2cc(-c3cnc4cccc(C)c4c3)[nH]c(=O)c2c1C(C)C (stereo not drawn) [Example 4-64, 3-Isopropyl-N-(6-methoxy-1,2,3,4-tetrahydronaphthalen-1-yl)-6-(5-methylquinolin-3-yl)-4-oxo-4,5-dihydropyrazolo[1,5-a]pyrazine-2-carboxamide]"
15,1.15,"Cc1cccc2ncc(-c3cn4nc(C(=O)NC5CCOc6ccccc65)c(C(C)C)c4c(=O)[nH]3)cc12 (stereo not drawn) [Example 4-65, N-(3,4-Dihydro-2H-chromen-4-yl)-3-isopropyl-6-(5-methylquinolin-3-yl)-4-oxo-4,5-dihydropyrazolo[1,5-a]pyrazine-2-carboxamide]"
16,3.9,"Cc1cccc2ncc(-c3cn4nc(C(=O)NC(CO)c5cc(Cl)cc(Cl)c5)c(C(C)C)c4c(=O)[nH]3)cc12 (stereo not drawn) [Example 4-66, N-[1-(3,5-Dichlorophenyl)-2-hydroxyethyl]-3-isopropyl-6-(5-methyl-3-quinolyl)-4-oxo-5H-pyrazolo[1,5-a]pyrazine-2-carboxamide]"
17,1.55,"Cc1cccc2ncc(-c3cn4nc(C(=O)N[C@@H](CO)c5ccccc5)c(C(C)C)c4c(=O)[nH]3)cc12 [Example 4-67, N-[(7R)-2-Hydroxy-1-phenylethyl]-6-(5-methylquinolin-3-yl)-4-oxo-3-(propan-2-yl)-4,5-dihydropyrazolo[1,5-a]pyrazine-2-carboxamide]"
18,3,"Cc1cccc2ncc(-c3cn4nc(C(=O)NC(c5ccccc5)C(F)F)c(C(C)C)c4c(=O)[nH]3)cc12 (stereo not drawn) [Example 4-68, N-(2,2-Difluoro-1-phenylethyl)-3-isopropyl-6-(5-methyl-3-quinolyl)-4-oxo-5H-pyrazolo[1,5-a]pyrazine-2-carboxamide]"
19,2,"Cc1cccc2ncc(-c3cn4nc(C(=O)N[C@H]5c6ccccc6C[C@H]5O)c(C(C)C)c4c(=O)[nH]3)cc12 [Example 4-69, N-[(7S,2R)-2-Hydroxy-2,3-dihydro-1H-inden-1-yl]-6-(5-methylquinolin-3-yl)-4-oxo-3-(propan-2-yl)-4,5-dihydropyrazolo[1,5-a]pyrazine-2-carboxamide]"
20,2.4,"Cc1cccc2ncc(-c3cn4nc(C(=O)NC(C)c5cccnc5)c(C(C)C)c4c(=O)[nH]3)cc12 (stereo not drawn) [Example 4-70, 3-Isopropyl-6-(5-methyl-3-quinolyl)-4-oxo-N-[1-(3-pyridyl)ethyl]-5H-pyrazolo[1,5-a]pyrazine-2-carboxamide]"
21,2.4,"COc1ccc(C(C)NC(=O)c2nn3cc(-c4cnc5cccc(C)c5c4)[nH]c(=O)c3c2C(C)C)cc1F (stereo not drawn) [Example 4-71, N-[1-(3-Fluoro-4-methoxyphenyl)ethyl]-3-isopropyl-6-(5-methyl-3-quinolyl)-4-oxo-5H-pyrazolo[1,5-a]pyrazine-2-carboxamide]"
22,6.05,"Cc1cccc2ncc(-c3cn4nc(C(=O)NC5CCc6ccccc65)c(C(C)C)c4c(=O)[nH]3)cc12 (stereo not drawn) [Example 4-72, N-(2,3-Dihydro-1H-inden-1-yl)-3-isopropyl-6-(5-methylquinolin-3-yl)-4-oxo-4,5-dihydropyrazolo[1,5-a]pyrazine-2-carboxamide]"
23,2.35,"Cc1cccc2ncc(-c3cn4nc(C(=O)NC5(c6ccccc6)CCCC5)c(C(C)C)c4c(=O)[nH]3)cc12 [Example 4-73, 6-(5-Methylquinolin-3-yl)-4-oxo-N-(1-phenylcyclopentyl)-3-(propan-2-yl)-4,5-dihydropyrazolo[1,5-a]pyrazine-2-carboxamide]"
24,6.05,"COc1ccc2c(c1)C(NC(=O)c1nn3cc(-c4cnc5cccc(C)c5c4)[nH]c(=O)c3c1C(C)C)CC(C)(C)O2 (stereo not drawn) [Example 4-74, 3-Isopropyl-N-(6-methoxy-2,2-dimethyl-3,4-dihydro-2H-chromen-4-yl)-6-(5-methylquinolin-3-yl)-4-oxo-4,5-dihydropyrazolo[1,5-a]pyrazine-2-carboxamide]"
25,1.25,"Cc1cccc2ncc(-c3cn4nc(C(=O)NC(CO)c5ccc(Br)cc5)c(C(C)C)c4c(=O)[nH]3)cc12 (stereo not drawn) [Example 4-75, N-[1-(4-Bromophenyl)-2-hydroxyethyl]-3-isopropyl-6-(5-methyl-3-quinolyl)-4-oxo-5H-pyrazolo[1,5-a]pyrazine-2-carboxamide]"
26,3.15,"Cc1cccc2ncc(-c3cn4nc(C(=O)NC(c5cccc(F)c5)C(F)F)c(C(C)C)c4c(=O)[nH]3)cc12 (stereo not drawn) [Example 4-76, N-[2,2-Difluoro-1-(3-fluorophenyl)ethyl]-3-isopropyl-6-(5-methyl-3-quinolyl)-4-oxo-5H-pyrazolo[1,5-a]pyrazine-2-carboxamide]"
27,0.835,"Cc1cccc2ncc(-c3cn4nc(C(=O)NC5(c6ccccc6)CCOCC5)c(C(C)C)c4c(=O)[nH]3)cc12 [Example 4-77, 3-Isopropyl-6-(5-methylquinolin-3-yl)-4-oxo-N-(4-phenyltetrahydro-2H-pyran-4-yl)-4,5-dihydropyrazolo[1,5-a]pyrazine-2-carboxamide]"

# Source: patent US20220324865A1 (Bayer Aktiengesellschaft, priority 2018, published 2022)
